“Also recorded” adds a separate entry of the source. Read-outs that look alike come from different tables or passages of the source. Marks after values point to notes of the source that are not given here.

Data set [1] has as its system patients with solid tumors. As to conditions: in vivo.
Another data set relates to solid tumors. The data set can be described thus: Efficacy evaluation, objective disease response by RECIST v.1. The format is in vivo, human.
For data set [2], the system named is acetylated histone H3 in patient PBMCs. Briefly: Histone acetylation in peripheral blood mononuclear cells. The data set is classed as in vivo, human.
The test system of data set [3] is peripheral T-cell lymphoma (PTCL). Conditions: two Phase II trials in PTCL; cited from earlier work.
The test system of data set [4] is radioactive iodine uptake in refractory thyroid cancer. The data set can be described thus: Radiolabeled sodium iodide. The data set is classed as in vivo, human. Conditions: six of eleven patients with thyroid cancer.
Data set [5] is described as follows: Plasma pharmacokinetics by LC/MS.
The subject of data set [6] is patients with solid tumors. The data set can be described thus: Phase I toxicity evaluation and dose escalation. Conditions: four-hour infusion on days 1, 3 and 5 of a 21-day cycle.
The subject of data set [7] is RAI avidity of tumor tissue. As to conditions: cited from earlier work.
Data set [8] concerns ST segment and T wave changes. Briefly: ECG evaluation, graded ST segment and T wave changes. The data set is classed as in vivo, human.
The test system of data set [9] is differentiated and anaplastic thyroid cancer cell lines. Conditions: in vitro, cited from earlier work.
Data set [10] relates to histone acetylation in PBMCs. As to conditions: day 1, 8 and 15 schedule, four hours; cited from earlier work.
In data set [11] the test system is cutaneous T-cell lymphoma (CTCL). As to conditions: two Phase II trials, 167 patients with CTCL; cited from earlier work.
The mark [12] stands for this setting: 27 of 28 patients, days 1, 3, and 5 of cycle 1.

Regarding `C/C=C1\NC(=O)[C@H]2CSSCC/C=C/[C@H](CC(=O)N[C@H](C(C)C)C(=O)N2)OC(=O)[C@H](C(C)C)NC1=O` [romidepsin, Romidepsin], in [1] (human), the “Patients requiring dose reduction” value was 7 of 9. Also, in data set [1] (human, 21 day), the Anorexia is recorded as 4 # pts (%), the “Grade 4 toxicities” value is recorded as “none in cycle 1”, the Hypocalcemia is 5 (18%) # pts (%) and the Nausea was 3 # pts (%). For the same compound, in data set [1] (human, 21 day), the “Recommended phase II dose (RP2D)” value is 7 mg/m^2 and the Vomiting was 2 # pts (%). The Vomiting in [1] (human, 21 days) is given as 9 (32%) # pts (%). In data set [1], the Febrile neutropenia result is “no episodes of febrile neutropenia”; the “Grade 3 nausea and vomiting at dose level 4” value is recorded as “not considered dose-limiting”. The RECIST-defined objective response result with solid tumors (28 patients with solid tumors, all dose levels) is “No RECIST-defined objective responses; also recorded: no patient met criteria for RECIST-defined objective response”. Besides, the “Patients with stable disease” value in the data set on solid tumors (of 28 patients, minimum of six cycles (18 weeks)) is recorded as “nine”. For the same compound, the “Range of duration of stable disease, thyroid cancer” value in the data set on solid tumors (six patients with thyroid cancer) was 26–112 weeks. For the same compound, the “Median increase in histone acetylation over baseline” value in [2] (4h time-point, 9.9 mg/m^2) is 3 fold. In [2] (4h time-point, dose of 3.3 mg/m^2 or higher), the “Increase in histone acetylation in PBMCs” value is listed as not below 2 fold. The “Accumulation in acetylation over the 5 days of treatment” value in data set [2] (days 1, 3, 5) is listed as “no accumulation in acetylation”. Also, the “Patients with no measurable increase in AcH3” value in data set [2] (dose level 1 or 2) is given as “Five of six”. Also, in data set [2] (fold-increase in acetylation over pre-dose levels by cohort), the “Apparent threshold dose for histone acetylation in PBMCs” value was 3.3 mg/m^2. For the same compound, in [3], the ORR is recorded as 25–38%. Also, the “RAI uptake on follow-up RAI scans” value in data set [4] is on record as “did not detect meaningful increases; also recorded: None demonstrated significant uptake; also recorded: did not demonstrate a significant increase in RAI uptake”. The “Dose dependence of CMAX and AUCLAST” value in data set [5] (1 to 9 mg/m^2) is “linear pharmacokinetics”. In [5] (setting [12]), the “Inter-day patient variability (%CV) for AUCLAST” value is 2–59% and the “Inter-day patient variability (%CV) for CMAX” value was 5–68%. The Clearance result in data set [5] (all dose levels) is listed as “rapid clearance”. For the same compound, the “Plasma romidepsin concentration 14 hours after completing the infusion” value in data set [5] (most patients, lower limit of quantitation 2 ng/ml) is listed as “below the lower limit of quantitation”. Further, the “Dose identified as tolerable” value in data set [6] was determined as 7 mg/m^2. In addition, the “Patients with increase in RAI avidity” value in data set [7] (patients scanned following romidepsin) was 2 of 16. Further, the “Patients with Grade 2 ST and T wave changes” value in [8] (24-hour timepoint, dose level 5 (7 mg/m^2) and onward) was “over half of patients”. Moreover, in data set [8] (by dose level), the “Grade 1 ST and T wave changes” value was “noted from the first dose level onward”. The “Grade 2 ST and T wave changes” value in data set [8] (dose levels above 5 mg/m^2) is recorded as “observed frequently”. Further, the “Expression of thyroglobulin and NIS” value in data set [9] (nontoxic doses for 48 – 72 hours) is on record as “induced expression”. For the same compound, the Radioactive iodine uptake result in [9] is reported as “increased radioactive iodine uptake”. The “Median increase in histone acetylation in PBMCs” value in data set [10] is given as 3 fold. Besides, the “Overall response rate (ORR)” value in data set [11] is reported as 34–35%.

Consider `O=C(CCCCCCC(=O)Nc1ccccc1)NO` [vorinostat], for which the “RAI in tumor tissue” value in data set [7] (one patient) was “increased”.

The values above are taken from article PMC3967244 (Clinical cancer research : an official journal of the …, 2013).
